# How the values were obtained:
# [1] = test system: FADD-deficient Jurkat cells; test: TNF-α-induced necroptosis, cell viability (CellTiter Glo); type: cell-based, human; conditions: for EC50: CellTiter Glo, read-out: EC50 for inhibiting necroptosis; for prevention of necroptotic cell death: dose range, Figure 2a, b
# Method: (§1) Cells were seeded in 12-, 24- or 96-well plates at proper cell density. For necroptosis or apoptosis assays, cells were incubated with the indicated compound combinations at concentrations stated for 14–24 h. Smac mimetic and z-VAD-FMK were added 30–60 min before treatment with TNF-α, FasL or TRAIL. Cell viability was determined using CellTiter Glo Luminescent Cell Viability Assay (Promega, Fitchburg, WI, USA) according to the manufacturer's instructions. Luminescence was recorded with a SpectraMax M5Multimode plate reader (Molecular Devices, Sunnyvale, CA, USA). For flow cytometry-based determination of viability, cells were harvested, collected by centrifugation, washed once and resuspended in staining buffer (1 × PBS, 10% FBS). Cells were incubated with 0.5 μg/ml PI for 10 min at room temperature (RT) in the dark. Flow cytometric analyses were performed on an LSR Fortessa (BD Biosciences) and analyzed with FlowJo software version 7.6.3 (Tree Star Inc, Ashland, OR, USA). Cell size was evaluated by forward scatter. PI-negative normal-sized cells were considered living and data were normalized to values of untreated controls.
# The compounds were transferred into drug plates by acoustic droplet ejection using an Echo 520 liquid handler (LABCYTE, Sunnyvale, CA, USA). Necroptosis was induced in FADD-deficient Jurkat cells by addition of 10 ng/ml TNF-α immediately before seeding onto drug plates at a density of 1x10^4 cells/well. After 16 h incubation, cell viability was determined using CellTiter Glo Luminescent Cell Viability Assay according to manufacturer's instructions. Data analysis was performed by calculating a percentage of control to normalize for variability across different plates. The signal for the negative control DMSO wells was set to 0%, whereas the wells containing the positive control Nec-1 were put to 100% for each plate individually.
# HT-29 cells [2] = test: TNF-α/Smac mimetic/z-VAD-FMK (TSZ)-induced necroptosis, cell viability; type: cell-based, human; conditions: for rescue of TSZ-induced necroptotic cell death: compounds 1 μM, 20 ng/ml TNF-α, 500 nM Smac mimetic, 20 μM z-VAD overnight
# Method: as §1
# HT-29 cells [3] = test: TRAIL- or FasL-induced necroptosis with Smac mimetic and z-VAD; type: cell-based, human; conditions: 0.5 μM ponatinib, 5 μM pazopanib
# Method: as §1, with “controls. For detection of apoptosis, cells were resuspended in Annexin V Binding Buffer (BioLegend, San Diego, CA, USA) and stained with 0.5 μg/ml PI and Alexa Fluor 647 Annexin V (BioLegend) according to manufacturer's instructions.” for “controls.”
# Jurkat E6.1 cells = test: FasL-induced apoptosis, cell viability; type: cell-based; conditions: 100 ng/ml human FasL, 24 h; 0.5 μM ponatinib, 5 μM pazopanib
# Method: as §1, with “controls. For detection of apoptosis, cells were resuspended in Annexin V Binding Buffer (BioLegend, San Diego, CA, USA) and stained with 0.5 μg/ml PI and Alexa Fluor 647 Annexin V (BioLegend) according to manufacturer's instructions.” for “controls.”
# 3T3-SA cells = test: TNF-α/z-VAD (TZ)-induced necroptosis; type: cell-based, murine; conditions: Supplementary Figures 3a, b
# Method: as §1, with “controls. For detection of apoptosis, cells were resuspended in Annexin V Binding Buffer (BioLegend, San Diego, CA, USA) and stained with 0.5 μg/ml PI and Alexa Fluor 647 Annexin V (BioLegend) according to manufacturer's instructions.” for “controls.”
# HT-29 MLKL S358D cells = test: Cell death driven by doxycycline-induced MLKL S358D expression; type: cell-based, human; conditions: 2 μg/ml doxycycline overnight; 10 μM NSA, 0.5 μM ponatinib
# Method: as §1, with “controls. For detection of apoptosis, cells were resuspended in Annexin V Binding Buffer (BioLegend, San Diego, CA, USA) and stained with 0.5 μg/ml PI and Alexa Fluor 647 Annexin V (BioLegend) according to manufacturer's instructions.” for “controls.”
# recombinant RIPK1 = target: T1, recombinant RIPK1 (Homo sapiens, UniProt Q13546); test: Recombinant kinase assay; type: biochemical; conditions: 50 μM ATP; Supplementary Figure 4b
# T1 construct: purchased Signalchem R07-10G
# Method: (§2) Recombinant RIPK1 or RIPK3 protein was incubated with the substrate MBP in kinase assay buffer (40 mM Tris-HCl pH 7.5, 10 mM MgCl2 and 1 mM DTT) in presence of 50 μM ATP, 5 μCi [γ-32 P]ATP and the indicated inhibitors in a total volume of 20 μl. […] The terminated reactions were spotted onto a SAM2 Biotin Capture membrane (Promega) and further processed according to the manufacturer's instructions. […] Data were normalized to a DMSO-treated control sample. For autoradiography, the reactions were stopped by addition of 5 μl 4x Laemmli buffer and incubated for 5 min at 95 °C.
# RIPK3 = RIPK3 (Homo sapiens, UniProt Q9Y572); test: Recombinant kinase assay; type: biochemical; set-up: purchased Signalchem R09-10G
# Method: as §2
# Chain of RIPK3 (Q9Y572 whole entry): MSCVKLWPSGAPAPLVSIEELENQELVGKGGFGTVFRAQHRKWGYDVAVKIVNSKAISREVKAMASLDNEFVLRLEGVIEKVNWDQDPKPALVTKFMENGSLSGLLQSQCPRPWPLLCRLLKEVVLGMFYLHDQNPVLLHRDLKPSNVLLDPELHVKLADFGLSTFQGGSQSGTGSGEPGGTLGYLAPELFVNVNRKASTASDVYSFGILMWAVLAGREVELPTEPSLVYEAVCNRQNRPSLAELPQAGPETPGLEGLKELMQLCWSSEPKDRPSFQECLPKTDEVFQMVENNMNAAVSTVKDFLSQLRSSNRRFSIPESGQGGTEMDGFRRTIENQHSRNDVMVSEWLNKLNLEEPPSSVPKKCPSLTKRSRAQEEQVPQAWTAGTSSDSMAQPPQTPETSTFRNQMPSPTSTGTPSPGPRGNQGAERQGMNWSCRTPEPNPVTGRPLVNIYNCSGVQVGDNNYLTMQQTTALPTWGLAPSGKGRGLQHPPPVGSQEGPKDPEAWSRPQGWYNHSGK
# T1 sequence (Q13546 1-327 limits assumed): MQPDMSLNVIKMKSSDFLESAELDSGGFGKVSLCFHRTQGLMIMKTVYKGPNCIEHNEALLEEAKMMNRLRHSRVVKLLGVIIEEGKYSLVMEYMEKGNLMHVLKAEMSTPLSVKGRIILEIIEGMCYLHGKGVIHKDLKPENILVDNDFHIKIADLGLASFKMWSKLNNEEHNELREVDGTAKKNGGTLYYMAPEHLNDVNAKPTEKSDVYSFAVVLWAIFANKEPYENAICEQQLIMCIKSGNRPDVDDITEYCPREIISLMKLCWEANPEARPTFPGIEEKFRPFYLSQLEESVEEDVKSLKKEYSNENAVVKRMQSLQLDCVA
compound,measurement,setting,value
"5-[[4-[(2,3-dimethyl-2H-indazol-6-yl)methylamino]-2-pyrimidinyl]amino]-2-methyl-b enzenesulfonamide [pazopanib]",EC50,[1]; 10 ng/ml TNF-α overnight,254 nM
same,rescue of cell viability in drug screen,"[1]; 0.5 and 1.5 μM, 10 ng/ml TNF-α overnight",robustly rescued cell viability at both concentrations
same,EC50,"HT-29 cells [2]; TSZ treatment, read-out: EC50 (necroptosis block)",873 nM
same,rescue of TSZ-induced necroptotic cell death,HT-29 cells [2],rescued
same,block of TRAIL-induced cell death,HT-29 cells [3]; 200 ng/ml TRAIL + 500 nM Smac mimetic + 20 μM z-VAD,similarly blocked
same,block of FasL-induced necroptotic cell death,HT-29 cells [3]; 200 ng/ml human FasL + 500 nM Smac mimetic + 20 μM z-VAD,similarly blocked
same,inhibition of apoptotic cell death triggered by FasL,Jurkat E6.1 cells,none of the drugs inhibited apoptotic cell death
same,block of necroptotic cell death,3T3-SA cells,capable of blocking necroptotic cell death with comparable potency
same,block of cell death driven by MLKL S358D expression,HT-29 MLKL S358D cells,did not block MLKL S358D-driven necroptosis
same,RIPK1 kinase activity (MBP phosphorylation),recombinant RIPK1,inhibiting RIPK1 kinase activity
"COc1nccnc1NS(=O)(=O)c1ccc(NC(=O)/C=C/c2ccc([N+](=O)[O-])s2)cc1 [NSA, necrosulfonamide]",block of cell death driven by MLKL S358D expression,HT-29 MLKL S358D cells,could be blocked
"CN1C(=O)NC(Cc2c[nH]c3c(Cl)cccc23)C1=O (stereo not shown) [Nec-1s, 7-Cl-O-Nec-1]",EC50,[1]; 10 ng/ml TNF-α overnight,238 nM
same,RIPK3 autophosphorylation,"RIPK3; autoradiography, Supplementary Figure 4c",showed no effect
COc1cc(O)c2c(c1)/C=C/C[C@H](O)[C@H](O)C(=O)/C=C\C[C@H](C)OC2=O [TAK1 inhibitor],protection to necroptosis,"[1]; Supplementary Figures 6b, c",not able to confer protection to necroptosis
COc1cc(Nc2c(C#N)cnc3cc(OCCCN4CCN(C)CC4)c(OC)cc23)c(Cl)cc1Cl [bosutinib],prevention of necroptotic cell death,[1]; 10 ng/ml TNF-α overnight,none of the other drugs prevented necroptotic cell death
same,rescue of TSZ-induced necroptotic cell death,HT-29 cells [2],neither of the other four BCR-ABL inhibitors nor vandetanib did
Cc1nc(Nc2ncc(C(=O)Nc3c(C)cccc3Cl)s2)cc(N2CCN(CCO)CC2)n1 [dasatinib],prevention of necroptotic cell death,[1]; 10 ng/ml TNF-α overnight,showed a modest effect but only at drug concentrations high enough to induce toxicity
same,rescue of TSZ-induced necroptotic cell death,HT-29 cells [2],neither of the other four BCR-ABL inhibitors nor vandetanib did
same,RIPK3 kinase activity (MBP phosphorylation),"RIPK3; 50 μM ATP, Figure 4e inhibitors at 10 μM",interfered with RIPK3 activity
Cc1ccc(NC(=O)c2ccc(CN3CCN(C)CC3)cc2)cc1Nc1nccc(-c2cccnc2)n1 [imatinib],prevention of necroptotic cell death,[1]; 10 ng/ml TNF-α overnight,none of the other drugs prevented necroptotic cell death
same,rescue of TSZ-induced necroptotic cell death,HT-29 cells [2],neither of the other four BCR-ABL inhibitors nor vandetanib did
Cc1cn(-c2cc(NC(=O)c3ccc(C)c(Nc4nccc(-c5cccnc5)n4)c3)cc(C(F)(F)F)c2)cn1 [nilotinib],prevention of necroptotic cell death,[1]; 10 ng/ml TNF-α overnight,none of the other drugs prevented necroptotic cell death
same,rescue of TSZ-induced necroptotic cell death,HT-29 cells [2],neither of the other four BCR-ABL inhibitors nor vandetanib did
COc1cc2c(Nc3ccc(Br)cc3F)ncnc2cc1OCC1CCN(C)CC1 [vandetanib],prevention of necroptotic cell death,[1]; 10 ng/ml TNF-α overnight,did not confer protection
same,rescue of TSZ-induced necroptotic cell death,HT-29 cells [2],neither of the other four BCR-ABL inhibitors nor vandetanib did

# Reference: paper PMC4669708 (Cell Death & Disease, 2015)
